Assay results as given in US10562850B2, “Human plasma kallikrein inhibitors” (priority 2015, dated 2020).
Values belong to the molecule of their own block, whether it stands above or below them.

Target: human plasma kallikrein (Homo sapiens (Human), UniProt P03952)
Test: Plasma Kallikrein Activity Assay (chromogenic substrate S2302)
Assay type: biochemical
Conditions: 2 nM kallikrein, 80 μM S2302, 30° C., pH 7.8; Cheng-Prusoff
Method: Plasma Kallikrein Activity Assay.
The effect of compounds of the invention on human plasma kallikrein activity was determined using the chromogenic substrates (DiaPharma Group, Inc., West Chester, Ohio, USA). In these experiments, 2 nM kallikrein (Enzyme Research Laboratories, South Bend, Ind., USA) was incubated with 80 μM S2302 (H-D-Pro-Phe-Arg-p-nitroaniline) in the absence or presence of increasing concentrations of compounds of the invention in a final volume of 200 μL Tris-HCl buffer (200 mM NaCl; 2.5 mM CaCl2; 50 mM Tris-HCl, pH 7.8).
After incubation at 30° C., the activity of kallikrein was measured as a change in absorbance at OD 405 nm using BioTek PowerWave X340 Microplate Reader (Winooski, Vt., USA). Data were analyzed using SigmaPlot software (Systat Software, Inc., San Jose, Calif., USA) (Four Parameter Logistic Curve). Ki values for the inhibitors were determined using the Cheng-Prusoff equation (Biochem. Pharmacol. 1973, 22, 3099).

human plasma kallikrein, sequence (P03952 391-638): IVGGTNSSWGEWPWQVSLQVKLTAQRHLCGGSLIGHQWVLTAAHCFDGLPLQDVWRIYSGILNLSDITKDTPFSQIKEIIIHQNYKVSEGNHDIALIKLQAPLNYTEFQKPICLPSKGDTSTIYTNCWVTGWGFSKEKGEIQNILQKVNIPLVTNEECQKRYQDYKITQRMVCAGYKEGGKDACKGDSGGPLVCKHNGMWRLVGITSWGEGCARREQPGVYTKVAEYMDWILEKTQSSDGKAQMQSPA
human plasma kallikrein, sequence (P03952 20-390 partner): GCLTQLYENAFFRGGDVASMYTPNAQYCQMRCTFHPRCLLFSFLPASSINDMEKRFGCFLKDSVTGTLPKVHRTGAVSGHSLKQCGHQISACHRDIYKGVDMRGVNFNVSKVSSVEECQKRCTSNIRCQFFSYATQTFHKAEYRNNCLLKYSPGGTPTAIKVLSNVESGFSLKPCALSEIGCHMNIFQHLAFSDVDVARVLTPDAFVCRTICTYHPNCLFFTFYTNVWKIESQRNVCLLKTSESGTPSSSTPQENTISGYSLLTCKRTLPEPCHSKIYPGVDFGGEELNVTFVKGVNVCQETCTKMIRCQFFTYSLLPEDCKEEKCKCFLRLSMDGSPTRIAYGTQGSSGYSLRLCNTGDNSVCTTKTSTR

Structure (SMILES): N#Cc1cccc(C(N)(CCC2CC2)c2ccc(F)c(NC(=O)[C@@H]3C[C@H](O)CN3C(=O)Nc3ccc(Cl)cc3)c2)c1 (stereo partly drawn) [Compound 10c, (2S,4S)-N2-(5-((−)-1-amino-1-(3-cyanophenyl)-3-cyclopropylpropyl)-2-fluorophenyl)-N1-(4-chlorophenyl)-4-hydroxypyrrolidine-1,2-dicarboxamide]
- Ki: > 100 nM

Structure (SMILES): CO[C@@H]1C[C@H](C(=O)Nc2cc(C(N)(CCC3CC3)c3cccc(C#N)c3)ccc2F)N(C(=O)Nc2ccc(C#N)cc2)C1 (stereo partly drawn) [Compound 15f, (2R,4R)-N2-(5-((+)-1-amino-1-(3-cyanophenyl)-3-cyclopropylpropyl)-2-fluorophenyl)-N1-(4-cyanophenyl)-4-methoxypyrrolidine-1,2-dicarboxamide]
- Ki: > 100 nM

Structure (SMILES): CO[C@@H]1C[C@H](C(=O)Nc2cc(C(N)(CCC3CC3)c3ccncc3)ccc2F)N(C(=O)c2cccc(C#N)c2)C1 (stereo partly drawn) [Compound 86a, (2R,4R)-N-(5-((+)-1-amino-3-cyclopropyl-1-(pyridin-4-yl)propyl)-2-fluorophenyl)-1-(3-cyanobenzoyl)-4-methoxypyrrolidine-2-carboxamide]
- Ki: > 100 nM

Structure (SMILES): NC(CCC1CC1)(c1ccncc1)c1ccc(F)c(NC(=O)[C@H]2C[C@@H](O)CN2C(=O)Nc2ccc(Cl)cc2)c1 (stereo partly drawn) [Compound 69a, (2R,4R)-N2-(5-((+)-1-amino-3-cyclopropyl-1-(pyridin-4-yl)propyl)-2-fluorophenyl)-N1-(4-chlorophenyl)-4-hydroxypyrrolidine-1,2-dicarboxamide]
- Ki: < 50 nM

Structure (SMILES): CC(C)(C)[S@@+]([O-])NC(CCC1CC1)(c1cccc(C#N)c1)c1ccc(F)c(NC(=O)[C@H]2C[C@H](N=[N+]=[N-])CN2C(=O)Nc2ccc(Cl)cc2)c1 (stereo partly drawn) [Compound 33b, (2R,4S)-4-azido-N1-(4-chlorophenyl)-N2-(5-((+)-1-(3-cyanophenyl)-3-cyclopropyl-1-((R)-1,1-dimethylethylsulfinamido)propyl)-2-fluorophenyl)pyrrolidine-1,2-dicarboxamide]
- Ki: > 100 nM

Structure (SMILES): CCO[C@@H]1C[C@H](C(=O)Nc2cc(C(N)(CCC3CC3)c3ccncc3)ccc2F)N(C(=O)Nc2ccc(Cl)cn2)C1 (stereo partly drawn) [Compound 51b, (2R,4R)-N2-(5-((+)-1-amino-3-cyclopropyl-1-(pyridin-4-yl)propyl)-2-fluorophenyl)-N1-(5-chloropyridin-2-yl)-4-ethoxypyrrolidine-1,2-dicarboxamide]
- Ki: < 50 nM

Structure (SMILES): CCNC(CCC1CC1)(c1ccncc1)c1ccc(F)c(NC(=O)[C@H]2C[C@@H](OC)CN2C(=O)Nc2ccc(Cl)cn2)c1 (stereo partly drawn) [Compound 77a, (2R,4R)-N1-(5-chloropyridin-2-yl)-N2-(5-((+)-3-cyclopropyl-1-(ethylamino)-1-(pyridin-4-yl)propyl)-2-fluorophenyl)-4-methoxypyrrolidine-1,2-dicarboxamide]
- Ki: < 50 nM

Structure (SMILES): CO[C@@H]1C[C@H](C(=O)Nc2cc(C(N)(CCC3CC3)c3ccncc3)ccc2F)N(C(=O)Nc2ccc(Cl)cn2)C1 (stereo partly drawn) [Compound 70c, (2R,4R)-N2-(5-((+)-1-amino-3-cyclopropyl-1-(pyridin-4-yl)propyl)-2-fluorophenyl)-N1-(5-chloropyridin-2-yl)-4-methoxypyrrolidine-1,2-dicarboxamide]
- Ki: < 50 nM

Structure (SMILES): CO[C@@H]1C[C@H](C(=O)Nc2cc(C(CCC3CC3)(NC(C)=O)c3ccncc3)ccc2F)N(C(=O)Nc2ccc(Cl)cn2)C1 (stereo partly drawn) [Compound 73a, (2R,4R)-N2-(5-((+)-1-acetamido-3-cyclopropyl-1-(pyridin-4-yl)propyl)-2-fluorophenyl)-N1-(5-chloropyridin-2-yl)-4-methoxypyrrolidine-1,2-dicarboxamide]
- Ki: < 50 nM

Structure (SMILES): NC(CCC1CC1)(c1ccncc1)c1ccc(F)c(NC(=O)[C@H]2CC(F)(F)CN2C(=O)Nc2ccc(Cl)cn2)c1 (stereo partly drawn) [Compound 53d, (R)-N2-(5-((+)-1-amino-3-cyclopropyl-1-(pyridin-4-yl)propyl)-2-fluorophenyl)-N1-(5-chloropyridin-2-yl)-4,4-difluoropyrrolidine-1,2-dicarboxamide]
- Ki: < 50 nM

Structure (SMILES): CCO[C@@H]1C[C@H](C(=O)Nc2cc(C(NCC3CC3)c3cccc(C#N)c3)ccc2F)N(C(=O)Nc2ccc(Cl)cn2)C1 (stereo partly drawn) [Compound 58j, (2R,4R)-N1-(5-chloropyridin-2-yl)-N2-(5-((+)-(3-cyanophenyl)(cyclopropylmethylamino)methyl)-2-fluorophenyl)-4-ethoxypyrrolidine-1,2-dicarboxamide]
- Ki: < 50 nM

Structure (SMILES): O=C(Nc1ccc(Cl)cn1)NC(CCC1CC1)(c1ccc(F)c(NC(=O)[C@H]2C[C@](O)(c3ccccc3)CN2C(=O)Nc2ccc(Cl)cn2)c1)c1ccccn1 (stereo partly drawn) [Compound 32b, (2R,4S)-N1-(5-chloropyridin-2-yl)-N2-(5-(1-(3-(5-chloropyridin-2-yl)ureido)-3-cyclopropyl-1-(pyridin-2-yl)propyl)-2-fluorophenyl)-4-hydroxy-4-phenylpyrrolidine-1,2-dicarboxamide]
- Ki: > 100 nM

Structure (SMILES): CC(C)(C)[S@@+]([O-])NC(CCC1CC1)(c1cccc(C#N)c1)c1ccc(F)c(NC(=O)[C@H]2CCCN2C(=O)Nc2ccc(Cl)cc2)c1 (stereo partly drawn) [Compound 7b, (R)-N1-(4-chlorophenyl)-N2-(5-((+)-1-(3-cyanophenyl)-3-cyclopropyl-1-((R)-1,1-dimethylethylsulfinamido)propyl)-2-fluorophenyl)pyrrolidine-1,2-dicarboxamide]
- Ki: > 100 nM

- Ki: < 50 nM
Structure (SMILES): CCC1(O)C[C@H](C(=O)Nc2cc(C(N)(CCC3CC3)c3ccccn3)ccc2F)N(C(=O)Nc2ccc(Cl)cn2)C1 (stereo partly drawn) [Compound 38d, (2R)-N2-(5-((+)-1-amino-3-cyclopropyl-1-(pyridin-2-yl)propyl)-2-fluorophenyl)-N1-(5-chloropyridin-2-yl)-4-ethyl-4-hydroxypyrrolidine-1,2-dicarboxamide]

Structure (SMILES): CCO[C@@H]1C[C@H](C(=O)Nc2cc(C(CCC3CC3)(NC(C)=O)c3ccncc3)ccc2F)N(C(=O)Nc2ccc(Cl)cn2)C1 (stereo partly drawn) [Compound 56a, (2R,4R)-N2-(5-((+)-1-acetamido-3-cyclopropyl-1-(pyridin-4-yl)propyl)-2-fluorophenyl)-N1-(5-chloropyridin-2-yl)-4-ethoxypyrrolidine-1,2-dicarboxamide]
- Ki: < 50 nM

Structure (SMILES): CC(C)(C)[S@@+]([O-])NC(CCC1CC1)(c1cccc(C#N)c1)c1ccc(F)c(NC(=O)[C@@H]2C[C@H](O)CN2C(=O)Nc2ccc(Cl)cc2)c1 (stereo partly drawn) [Compound 10b, (2S,4S)-N1-(4-chlorophenyl)-N2-(5-((−)-1-(3-cyanophenyl)-3-cyclopropyl-1-((R)-1,1-dimethylethylsulfinamido)propyl)-2-fluorophenyl)-4-hydroxypyrrolidine-1,2-dicarboxamide]
- Ki: > 100 nM

Structure (SMILES): CO[C@@H]1C[C@H](C(=O)Nc2cc(C(N)(CCC3CC3)c3ccccn3)ccc2F)N(C(=O)Nc2ccc(Cl)cc2)C1 (stereo partly drawn) [Compound 65b, (2R,4R)-N2-(5-((+)-1-amino-3-cyclopropyl-1-(pyridin-2-yl)propyl)-2-fluorophenyl)-N1-(4-chlorophenyl)-4-methoxypyrrolidine-1,2-dicarboxamide]
- Ki: < 50 nM

Structure (SMILES): N#Cc1cccc(C(N)(CCC2CC2)c2ccc(F)c(NC(=O)[C@H]3C[C@@H](O)CN3C(=O)Nc3ccc(C(F)(F)F)cc3)c2)c1 (stereo partly drawn) [Compound 27b, (2R,4R)-N2-(5-((+)-1-amino-1-(3-cyanophenyl)-3-cyclopropylpropyl)-2-fluorophenyl)-4-hydroxy-N1-(4-(trifluoromethyl)phenyl)pyrrolidine-1,2-dicarboxamide]
- Ki: > 100 nM
